Tests used:
[1] = 303.15 K, 101 kPa, Liquid; for viscosity: Capillary tube (Ostwald / Ubbelohde) method; for mass density: Pycnometric method
[2] = xn = mol fraction of the nth substance listed; settings: 303.15 K, 101 kPa, Liquid; for viscosity: Capillary tube (Ostwald / Ubbelohde) method; for excess molar volume: Direct dilatometry; for mass density: Pycnometric method

Clc1ccc(Cl)c(Cl)c1 [1,2,4-trichlorobenzene]
[1]
Settings | mass density [kg/m3] | speed of sound [m/s] | viscosity [mPa·s]
– | 1442.14 | 1260 | 1.613

Cc1ccccc1[N+](=O)[O-] [2-nitrotoluene]
[1]
Settings | mass density [kg/m3] | viscosity [mPa·s]
– | 1153.24 | 1.911

Clc1ccccc1Cl [1,2-dichlorobenzene]
[1]
Settings | mass density [kg/m3] | speed of sound [m/s] | viscosity [mPa·s]
– | 1299.24 | 1261 | 1.302

Cc1ccccc1Cl [2-chlorotoluene]
[1]
Settings | mass density [kg/m3] | speed of sound [m/s] | viscosity [mPa·s]
– | 1072.81 | 1284 | 0.887

Cc1ccc(Cl)cc1 [4-chlorotoluene]
[1]
Settings | mass density [kg/m3] | speed of sound [m/s] | viscosity [mPa·s]
– | 1060.54 | 1271 | 0.9

Clc1cccc(Cl)c1 [1,3-dichlorobenzene]
[1]
Settings | mass density [kg/m3] | speed of sound [m/s] | viscosity [mPa·s]
– | 1277.12 | 1242 | 1.025

C[S+](C)[O-] [dimethyl sulfoxide]
[1]
Settings | mass density [kg/m3] | speed of sound [m/s] | viscosity [mPa·s]
– | 1091.35 | 1470 | 1.803

Cc1cccc([N+](=O)[O-])c1 [3-nitrotoluene]
[1]
Settings | mass density [kg/m3] | viscosity [mPa·s]
– | 1147.67 | 1.777

Cc1cccc(Cl)c1 [3-chlorotoluene]
[1]
Settings | mass density [kg/m3] | speed of sound [m/s] | viscosity [mPa·s]
– | 1065.21 | 1280 | 0.78

Clc1cccc(Cl)c1 [1,3-dichlorobenzene] + C[S+](C)[O-]
[2]
Settings | excess molar volume [m3/mol] | mass density [kg/m3] | speed of sound [m/s] | viscosity [mPa·s]
x2 = 0 | – | 1277.12 | 1242 | 1.025
x2 = 0.0801 | 1.6e-08 | – | 1244 | 1.107
x2 = 0.1124 | 2.2e-08 | – | 1248 | 1.14
x2 = 0.1506 | 2.7e-08 | – | 1253 | 1.181
x2 = 0.2075 | 3.5e-08 | – | 1256 | 1.232
x2 = 0.2511 | 4e-08 | – | 1268 | 1.273
x2 = 0.3162 | 4.5e-08 | – | 1387 | 1.329
x2 = 0.4219 | 5.3e-08 | – | 1395 | 1.419
x2 = 0.4507 | 5.5e-08 | – | 1305 | 1.445
x2 = 0.5005 | 5.6e-08 | – | 1345 | 1.487
x2 = 0.6224 | 5.4e-08 | – | 1370 | 1.586
x2 = 0.6819 | 5e-08 | – | 1399 | 1.632
x2 = 0.7517 | 4.3e-08 | – | 1416 | 1.68
x2 = 0.8015 | 3.5e-08 | – | 1431 | 1.715
x2 = 0.852 | 2.7e-08 | – | 1455 | 1.742
x2 = 0.9221 | 1.7e-08 | – | 1467 | 1.778

Cc1cccc(Cl)c1 [3-chlorotoluene] + C[S+](C)[O-]
[2]
Settings | excess molar volume [m3/mol] | mass density [kg/m3] | speed of sound [m/s] | viscosity [mPa·s]
x2 = 0 | – | 1065.21 | 1280 | 0.78
x2 = 0.0868 | 1.2e-08 | – | 1300 | 1.02
x2 = 0.1205 | 1.7e-08 | – | 1308 | 1.073
x2 = 0.1911 | 2.8e-08 | – | 1324 | 1.164
x2 = 0.2207 | 3.1e-08 | – | – | 1.203
x2 = 0.261 | 3.7e-08 | – | 1342 | 1.249
x2 = 0.3125 | 4.1e-08 | – | 1356 | 1.305
x2 = 0.3829 | 4.7e-08 | – | 1372 | 1.38
x2 = 0.4156 | 4.9e-08 | – | 1382 | 1.415
x2 = 0.502 | 5.2e-08 | – | 1404 | 1.503
x2 = 0.5419 | 5e-08 | – | 1412 | 1.541
x2 = 0.6205 | 4.7e-08 | – | 1429 | 1.602
x2 = 0.7125 | 3.7e-08 | – | 1450 | 1.674
x2 = 0.7517 | 3.3e-08 | – | 1457 | 1.704
x2 = 0.824 | 2.5e-08 | – | 1468 | 1.735
x2 = 0.9246 | 1.3e-08 | – | 1469 | 1.783

From the NIST ThermoML archive (doi:10.1016/j.jct.2006.04.005)
